Assay results taken from the Biogen ADME set (Fang et al. 2023).
Values after ≈ are worked out from the molar mass of the structure shown.

Conditions: for aqueous solubility: pH 6.8

SMILES	MDR1-MDCK efflux ratio	intrinsic clearance, human liver microsomes	intrinsic clearance, rat liver microsomes	aqueous solubility	fraction unbound, human plasma	fraction unbound, rat plasma
NCCOc1cccc(C(F)(F)F)n1	–	–	–	21.8 µg/mL (≈ 105 µM)	–	–
CCOc1ccc(C(=O)Cn2c(=O)n(-c3ccc(F)cc3)c3nc(C)nc(C(N)=O)c32)cc1	0.926	–	–	0.39 µg/mL (≈ 0.868 µM)	–	–
CCc1cc(-c2ccc(OC)c3nc(C)ccc23)nc(N2CCOCC2)n1	1.12	6.38 mL/min/kg	105 mL/min/kg	–	–	–
CC(C)(C)OC(=O)N1CCCC1C(=O)N1CCC(C(=O)N[C@@H](Cc2c[nH]c3ccccc23)C(=O)O)CC1 (stereo partly drawn)	–	≤ 4.74 mL/min/kg	–	–	0.492	0.696
Clc1cnc(NCC2(c3ccncc3)CC2)nc1	–	26 mL/min/kg	472 mL/min/kg	–	–	–
O=C1NC2(CCCC2)C(=O)N1Cc1ccccc1F	–	–	–	44.5 µg/mL (≈ 170 µM)	–	–
CN(CCN1CCOC1=O)C(=O)c1cc2cc(Br)ccc2o1	2.28	13.2 mL/min/kg	107 mL/min/kg	50.9 µg/mL (≈ 139 µM)	–	–
CO[C@H]1COCCN(C(=O)c2cccnc2)C1	1.2	≤ 4.74 mL/min/kg	≤ 10.7 mL/min/kg	34.8 µg/mL (≈ 147 µM)	–	–
CC(C)C(=O)N1CC(Cc2nccc3ccn(C)c23)C1	7.28	≤ 4.74 mL/min/kg	51.9 mL/min/kg	62.7 µg/mL (≈ 231 µM)	–	–
c1sc(NCC2CCCO2)nc1C12CC3CC(CC(C3)C1)C2 (stereo not drawn)	0.537	45.7 mL/min/kg	–	–	0.0008	–
FC(F)(F)c1ccc(Nc2nc3cc(Oc4ccnc(-c5ncc(C(F)(F)F)[nH]5)c4)ccc3[nH]2)cc1	0.86	–	–	0.35 µg/mL (≈ 0.694 µM)	–	–
Cc1cc(C(=O)N(C)CCCC2CCCC2)cc(C)n1	0.782	63.9 mL/min/kg	5650 mL/min/kg	–	–	–
CN1C(=O)[C@H]2CN(CC3=CC[C@H]4C[C@@H]3C4(C)C)C[C@H]2C1=O	0.768	207 mL/min/kg	2390 mL/min/kg	–	–	–
Cc1nc(C2CCNCC2)cc(N(C)C)n1	4.51	≤ 4.74 mL/min/kg	≤ 10.7 mL/min/kg	38.5 µg/mL (≈ 175 µM)	–	–
CS(=O)(=O)NCc1cc2n(n1)CCN(C1Cc3ccccc3C1)C2	2.92	≤ 4.74 mL/min/kg	27.7 mL/min/kg	–	–	–
CC(C)c1c(-c2ccccc2)[n+]([O-])c2c([n+]1[O-])CCC2	–	≤ 4.74 mL/min/kg	14.3 mL/min/kg	–	–	–
CN(C)C1=N[C@@H]2[C@@H](O)[C@H](O)[C@@H](CO)O[C@@H]2S1	0.274	≤ 4.74 mL/min/kg	≤ 10.7 mL/min/kg	36.7 µg/mL (≈ 148 µM)	–	–
N#Cc1cc(F)c(NS(=O)(=O)c2c[nH]c3cc(Cl)ccc23)cc1F	2.57	≤ 4.74 mL/min/kg	–	66.1 µg/mL (≈ 180 µM)	0.0094	0.0056
COc1ccc(NS(=O)(=O)c2ccc3c(c2)n(C)c(=O)n3C)cc1	–	–	–	2.05 µg/mL (≈ 5.9 µM)	–	–
COCCc1nsc(Oc2ccc(C)cc2Br)n1	0.578	148 mL/min/kg	4590 mL/min/kg	–	–	–
Cc1nnc(NC(C2CC2)C2CC2)c(C#N)c1C	–	–	–	7.54 µg/mL (≈ 31.1 µM)	–	–
Cc1nc(C2CCN(CC(N)=O)CC2)no1	–	≤ 4.74 mL/min/kg	≤ 10.7 mL/min/kg	61.4 µg/mL (≈ 274 µM)	–	–
O=C(CN1CCCC1=O)NCC1(CO)CCCC1	2.26	≤ 4.74 mL/min/kg	≤ 10.7 mL/min/kg	–	–	–
CN1CCCN(c2nc(C(F)(F)F)nc3cc4c(cc23)OCO4)CC1	1.11	22.3 mL/min/kg	209 mL/min/kg	43.3 µg/mL (≈ 122 µM)	–	–
C#CCN1CCC(c2nc(Cc3noc(C)n3)no2)CC1	0.732	≤ 4.74 mL/min/kg	12.8 mL/min/kg	49.5 µg/mL (≈ 172 µM)	–	–
Cc1ccc(Cn2ccn(-c3ccc(F)c(F)c3)c(=O)c2=O)cc1	0.671	–	–	0.35 µg/mL (≈ 1.07 µM)	–	–
O=C(CSC1CCCC1)N1CCC(n2ccnn2)CC1	1.3	13.2 mL/min/kg	138 mL/min/kg	39.1 µg/mL (≈ 133 µM)	–	–
CS(=O)(=O)NC[C@H]1CC[C@H](Nc2nc3c(s2)CCSc2ccccc2-3)CC1	1.81	21.5 mL/min/kg	247 mL/min/kg	–	–	–
COCCN(C)c1ccc(CN2CCOC3(CCCC3)C2)cn1	0.619	38.5 mL/min/kg	633 mL/min/kg	–	–	–
COCc1nc(C2CCN(CCO)CC2)no1	–	≤ 4.74 mL/min/kg	72.4 mL/min/kg	36.1 µg/mL (≈ 150 µM)	–	–

Continued, values first:

MDR1-MDCK efflux ratio	intrinsic clearance, human liver microsomes	intrinsic clearance, rat liver microsomes	aqueous solubility	fraction unbound, human plasma	fraction unbound, rat plasma	SMILES
30.3	≤ 4.74 mL/min/kg	268 mL/min/kg	–	–	–	Cc1cc(-c2cn(C)nc2[C@H]2CC[C@H](CNC(=O)C(C)C)CC2)on1
4.46	≤ 4.74 mL/min/kg	93.1 mL/min/kg	44.2 µg/mL (≈ 140 µM)	0.753	0.738	O=C1NCCN(C(=O)c2ccncc2)C1c1ccccc1Cl (stereo not drawn)
–	66.3 mL/min/kg	294 mL/min/kg	5.16 µg/mL (≈ 13.4 µM)	–	–	Cc1cccc(COc2cccc(/C=C3\C(=O)NN(c4ccccc4)C3=O)c2)c1
1.12	18 mL/min/kg	285 mL/min/kg	–	–	–	COC1(c2nc(Cc3ccccc3)no2)CCN(Cc2cnc(C)o2)CC1
0.681	30.3 mL/min/kg	121 mL/min/kg	30.4 µg/mL (≈ 139 µM)	–	–	CCSCc1nc(N)c2ccccc2n1
48.2	40.5 mL/min/kg	322 mL/min/kg	61.3 µg/mL (≈ 145 µM)	–	–	Cn1c(-c2ccc(F)cc2)cnc1NC(=O)CCC(=O)N1CC(=O)Nc2ccccc21
0.74	11 mL/min/kg	39.2 mL/min/kg	77.2 µg/mL (≈ 287 µM)	–	–	O=C(Nc1ccccc1-n1ccnc1)c1cccs1
2.15	–	–	0.2 µg/mL (≈ 0.526 µM)	–	–	COc1ccccc1N1CCN(c2nc(-c3ccc(F)cc3)cc(=O)[nH]2)CC1
1.06	11.1 mL/min/kg	399 mL/min/kg	47.4 µg/mL (≈ 165 µM)	–	–	Cc1ccc(F)cc1CNc1cc(C(=O)N(C)C)ccn1
–	12.7 mL/min/kg	192 mL/min/kg	–	–	–	Cc1ccc(CCNc2nc(C)cc(C)n2)cn1
17.3	≤ 4.74 mL/min/kg	≤ 10.7 mL/min/kg	54.2 µg/mL (≈ 211 µM)	–	–	Cn1cncc1-c1ncccc1C(=O)N1CCCC1
–	–	–	1.92 µg/mL (≈ 5.43 µM)	–	–	Cn1cc(-c2nc(C(=O)Nc3cccnc3-n3cncn3)cs2)cn1
1.39	≤ 4.74 mL/min/kg	60.3 mL/min/kg	37.9 µg/mL (≈ 151 µM)	–	–	N#Cc1ccc(CCC(=O)Nc2ccncc2)cc1
0.559	120 mL/min/kg	436 mL/min/kg	–	–	–	Cc1ccc(-n2cc(C)cn2)c(NC(=O)CN(C)C)c1
1.08	34 mL/min/kg	235 mL/min/kg	11.1 µg/mL (≈ 37.3 µM)	–	–	OCCCCCn1cc(-c2ccccc2-c2ccco2)nn1
41.3	7.76 mL/min/kg	210 mL/min/kg	50 µg/mL (≈ 131 µM)	–	–	CC(C)c1cnn2c(NCc3ccccc3)cc(NCCCCCCN)nc12

MDR1-MDCK efflux ratio	intrinsic clearance, human liver microsomes	intrinsic clearance, rat liver microsomes	aqueous solubility	fraction unbound, human plasma	fraction unbound, rat plasma	SMILES
0.572	89.3 mL/min/kg	605 mL/min/kg	40.1 µg/mL (≈ 140 µM)	–	–	COc1ccc(Nc2ncnc3sccc23)c(OC)c1
0.559	≤ 4.74 mL/min/kg	11.1 mL/min/kg	45.4 µg/mL (≈ 179 µM)	–	–	Cc1cc(C(=O)Nc2cccc3ncccc23)on1
–	20.5 mL/min/kg	415 mL/min/kg	–	–	–	N#Cc1cc(F)ccc1Cn1ccnc1-c1ccccn1
–	174 mL/min/kg	1400 mL/min/kg	–	–	–	COc1ccc2c(c1)CCCN(C(=O)NCCc1ccccn1)C2
0.641	40.5 mL/min/kg	2070 mL/min/kg	–	–	–	c1ccc(-c2ncc(CNc3ncccn3)s2)nc1
–	–	–	0.97 µg/mL (≈ 2.65 µM)	–	–	Cc1cc(C)cc(NC(=O)COC(=O)c2nn(C)c(=O)c3ccccc23)c1
0.638	53.8 mL/min/kg	632 mL/min/kg	14.7 µg/mL (≈ 47.6 µM)	–	–	CCCn1c(=O)n(Cc2ccc(C#N)cc2F)c2ccccc21
0.671	56.5 mL/min/kg	1000 mL/min/kg	65.2 µg/mL (≈ 189 µM)	–	–	Cc1cc(N2CCCCC2)nc(CNC(=O)c2ccccc2Cl)n1
–	81.8 mL/min/kg	238 mL/min/kg	–	–	–	CN1CCN(C(=O)c2ccc3cc(CCNc4ncnc5ccc(C#N)cc45)ccc3c2)CC1
0.59	10.5 mL/min/kg	65.8 mL/min/kg	20.5 µg/mL (≈ 87 µM)	–	–	Cc1ccncc1-c1ccc(-c2ccn[nH]2)cc1
0.744	36.2 mL/min/kg	799 mL/min/kg	47.3 µg/mL (≈ 134 µM)	–	–	Cc1cc(CNc2cc(C(=O)N(C)C)ccn2)sc1Br
42.6	≤ 4.74 mL/min/kg	–	67.5 µg/mL (≈ 179 µM)	–	–	N#Cc1cc(F)c(C(=O)Nc2ccnc(NC(=O)[C@H]3C[C@H]3F)c2)c(Cl)c1
0.981	≤ 4.74 mL/min/kg	359 mL/min/kg	–	–	–	COc1ccc(C)nc1-c1ccc(OC)c(OC)c1OC
49.3	10 mL/min/kg	114 mL/min/kg	–	–	–	CC(=O)Nc1ccccc1CN1CCC(c2nnc3ccccn23)CC1
–	137 mL/min/kg	512 mL/min/kg	9.65 µg/mL (≈ 36.4 µM)	–	–	Cc1ccn(-c2ccc3[nH]c4c(c3c2)CCCC4=O)n1
